# In patent US11697646B2, “Triazole N-linked carbamoyl cyclohexyl acids as LPA antagonists” (BRISTOL-MYERS SQUIBB COMPANY, priority 2017, dated 2023):
# Molecular target: T1, human LPA1 (Homo sapiens, UniProt Q92633)
# T1 construct: expressed in transfected cells; host or cells: Chinese hamster ovary (CHO) cells
# Test: LPA1 functional antagonist assay (calcium flux)
# Format: cell-based
# Conditions: CHO cells overexpressing human LPA1; calcium flux induced by 10 nM LPA; read-out: hLPA1 IC50
# Protocol: The effectiveness of compounds of the present invention as LPA1 inhibitors can be determined in an LPA1 functional antagonist assay as follows:
# The cells were then equilibrated to room temperature for 30 minutes before the assay. […] IC50 values were determined by fitting data to a 4-parameter logistic equation (GraphPad Prism, San Diego Calif.).
# T1 sequence (Q92633 whole entry): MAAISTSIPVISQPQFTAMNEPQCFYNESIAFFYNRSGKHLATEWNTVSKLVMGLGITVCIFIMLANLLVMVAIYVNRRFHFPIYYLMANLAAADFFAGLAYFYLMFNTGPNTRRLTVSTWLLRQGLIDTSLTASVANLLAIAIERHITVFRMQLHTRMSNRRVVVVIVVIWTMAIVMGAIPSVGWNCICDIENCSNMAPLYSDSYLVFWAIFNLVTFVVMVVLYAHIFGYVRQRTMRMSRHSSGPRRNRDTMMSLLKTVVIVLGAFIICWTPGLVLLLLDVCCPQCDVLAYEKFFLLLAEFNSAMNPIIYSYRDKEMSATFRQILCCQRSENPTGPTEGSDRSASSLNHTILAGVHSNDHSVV
row,Compound,IC50
1,"CCCCOC(=O)N(C)Cc1c(-c2ccc(O[C@H]3CCC[C@H](C(=O)O)C3)cn2)nnn1C [Example 14, (1S,3S)-3-((6-(5-(((butoxycarbonyl)(methyl)amino)methyl)-1-methyl-1H-1,2,3-triazol-4-yl)pyridin-3-yl)oxy)cyclohexane-1-carboxylic acid]",1020 nM
2,"CCCCOC(=O)NCc1c(-c2ccc(O[C@H]3CCC[C@H](C(=O)O)C3)c(C)n2)nnn1C [Example 3, (1S,3S)-3-((6-(5-(((butoxycarbonyl)amino)methyl)-1-methyl-1H-1,2,3-triazol-4-yl)-2-methylpyridin-3-yl)oxy)cyclohexane-1-carboxylic acid]",14 nM
3,"Cc1nc(-c2nnn(C)c2CNC(=O)OCCc2ccccc2)ccc1O[C@H]1CCC[C@H](C(=O)O)C1 [Example 16, (1S,3S)-3-((2-methyl-6-(1-methyl-5-(((phenethoxycarbonyl)amino)methyl)-1H-1,2,3-triazol-4-yl)pyridin-3-yl)oxy)cyclohexane-1-carboxylic acid]",32 nM
4,"CCC1(COC(=O)NCc2c(-c3ccc(O[C@H]4CCC[C@H](C(=O)O)C4)c(C)n3)nnn2C)CCC1 [Example 57, (1S,3S)-3-((6-(5-(((((1-ethylcyclobutyl)methoxy)carbonyl)amino)methyl)-1-methyl-1H-1,2,3-triazol-4-yl)-2-methylpyridin-3-yl)oxy)cyclohexane-1-carboxylic acid]",68 nM
5,"Cc1nc(-c2nnn(C)c2NC(=O)OC(C)C)ccc1O[C@H]1CCC[C@H](C(=O)O)C1 [Example 70, (1S,3S)-3-((6-(5-((isopropoxycarbonyl)amino)-1-methyl-1H-1,2,3-triazol-4-yl)-2-methylpyridin-3-yl)oxy)cyclohexane-1-carboxylic acid]",129 nM
6,"Cc1nc(-c2nnn(C)c2NC(=O)OCCC2CC2)ccc1O[C@H]1CCC[C@H](C(=O)O)C1 [Example 73, (1S,3S)-3-((6-(5-(((2-cyclopropyl-ethoxy)carbonyl)amino)-1-methyl-1H-1,2,3-triazol-4-yl)-2-methyl-pyridin-3-yl)oxy)cyclohexane-1-carboxylic acid]",11 nM
7,"CCCCCCOC(=O)NCc1c(-c2ccc(O[C@H]3CCC[C@H](C(=O)O)C3)cn2)nnn1C [Example 13, (1S,3S)-3-((6-(5-((((hexyloxy)carbonyl)amino)methyl)-1-methyl-1H-1,2,3-triazol-4-yl)pyridin-3-yl)oxy)cyclohexane-1-carboxylic acid]",428 nM
8,"CCCCOC(=O)NCCc1c(-c2ccc(O[C@H]3CCC[C@H](C(=O)O)C3)c(C)n2)nnn1C [Example 107, (1S,3S)-3-((6-(5-(2-((butoxy-carbonyl)amino)ethyl)-1-methyl-1H-1,2,3-triazol-4-yl)-2-methylpyridin-3-yl)oxy)cyclohexane-1-carboxylic acid]",1460 nM
9,"CCC1(COC(=O)NCc2c(-c3ccc(O[C@H]4CCC[C@H](C(=O)O)C4)cn3)nnn2C)CC1 [Example 51, (1S,3S)-3-((6-(5-(((((1-ethylcyclopropyl)methoxy)carbonyl)amino)methyl)-1-methyl-1H-1,2,3-triazol-4-yl)pyridin-3-yl)oxy)cyclohexane-1-carboxylic acid]",62 nM

# More lines, now with the values ahead:
row,IC50,Compound
1,79 nM,"C[C@@H](OC(=O)Nc1c(-c2ccc(O[C@H]3CCC[C@H](C(=O)O)C3)cn2)nnn1C)C1CC1 [Example 82, (1S,3S)-3-((6-(5-((((R)-1-cyclopropyl-ethoxy)carbonyl)amino)-1-methyl-1H-1,2,3-triazol-4-yl)pyridin-3-yl)oxy)cyclohexane-1-carboxylic acid]"
2,107 nM,"CCc1nc(-c2nnn(C)c2CNC(=O)NCc2ccccc2)ccc1O[C@H]1CCC[C@H](C(=O)O)C1 [Example 153, (1S,3S)-3-((6-(5-((3-benzyl-ureido)methyl)-1-methyl-1H-1,2,3-triazol-4-yl)-2-ethylpyridin-3-yl)oxy)cyclohexane-1-carboxylic acid]"
3,217 nM,"Cc1nc(-c2nnn(C)c2CNC(=O)N(C)[C@H](C)c2ccccc2)ccc1O[C@H]1CCC[C@H](C(=O)O)C1 [Example 131, (1S,3S)-3-((2-methyl-6-(1-methyl-5-((3-methyl-3-((R)-1-phenylethyl)ureido)methyl)-1H-1,2,3-triazol-4-yl)pyridin-3-yl)oxy)cyclohexane-1-carboxylic acid]"
4,178 nM,"Cn1nnc(-c2ccc(O[C@H]3CCC[C@H](C(=O)O)C3)cn2)c1NC(=O)OCC1CC1 [Example 83, (1S,3S)-3-((6-(5-(((cyclopropyl-methoxy)carbonyl)amino)-1-methyl-1H-1,2,3-triazol-4-yl)pyridin-3-yl)oxy)cyclohexane-1-carboxylic acid]"
5,273 nM,"Cc1nc(-c2nnn(C)c2CNC(=O)N(C)CC(C)C)ccc1O[C@H]1CCC[C@H](C(=O)O)C1 [Example 128, (1S,3S)-3-((6-(5-((3-isobutyl-3-methylureido)methyl)-1-methyl-1H-1,2,3-triazol-4-yl)-2-methylpyridin-3-yl)oxy)cyclohexane-1-carboxylic acid]"
6,226 nM,"CCCCCN(C)C(=O)NCc1c(-c2ccc(O[C@H]3CCC[C@H](C(=O)O)C3)c(C)n2)nnn1C [Example 111, (1S,3S)-3-((2-methyl-6-(1-methyl-5-((3-methyl-3-pentylureido)methyl)-1H-1,2,3-triazol-4-yl)pyridin-3-yl)oxy)cyclohexanecarboxylic acid]"
7,1800 nM,"Cc1nc(-c2nnn(C)c2CNS(=O)(=O)NCc2ccccc2)ccc1O[C@H]1CCC[C@H](C(=O)O)C1 [Example 227, (1S,3S)-3-((6-(5-(((N-benzyl-sulfamoyl)amino)methyl)-1-methyl-1H-1,2,3-triazol-4-yl)-2-methyl-pyridin-3-yl)oxy)cyclohexane-1-carboxylic acid]"
8,143 nM,"CCc1nc(-c2nnn(C)c2CNC(=O)N(C)Cc2ccccc2)ccc1O[C@H]1CCC[C@H](C(=O)O)C1 [Example 149, (1S,3S)-3-((6-(5-((3-benzyl-3-methylureido)methyl)-1-methyl-1H-1,2,3-triazol-4-yl)-2-ethyl-pyridin-3-yl)oxy)cyclohexane-1-carboxylic acid]"
9,389 nM,"CC(C)OC(=O)Nc1c(-c2ccc(O[C@H]3CCC[C@H](C(=O)O)C3)cn2)nnn1C [Example 220, (1S,3S)-3-((6-(5-((isopropoxy-carbonyl)amino)-1-methyl-1H-1,2,3-triazol-4-yl)pyridin-3-yl)oxy)cyclohexane-1-carboxylic acid]"
10,14 nM,"Cc1nc(-c2nnn(C)c2NC(=O)OCC2CC2)ccc1O[C@H]1CCC[C@H](C(=O)O)C1 [Example 74, (1S,3S)-3-((6-(5-(((cyclopropyl-methoxy)carbonyl)amino)-1-methyl-1H-1,2,3-triazol-4-yl)-2-methyl-pyridin-3-yl)oxy)cyclohexane-1-carboxylic acid]"
11,43 nM,"Cc1nc(-c2nnn(C)c2NC(=O)OCCC(F)(F)F)ccc1O[C@H]1CCC[C@H](C(=O)O)C1 [Example 145, (1S,3S)-3-((2-methyl-6-(1-methyl-5-(((3,3,3-trifluoropropoxy)carbonyl)amino)-1H-1,2,3-triazol-4-yl)pyridin-3-yl)oxy)cyclohexane-1-carboxylic acid]"
12,569 nM,"Cn1nnc(-c2ccc(O[C@H]3CCC[C@H](C(=O)O)C3)cn2)c1CNC(=O)CC1CCCC1 [Example 236, (1S,3S)-3-((6-(5-((2-cyclopentylacetamido)methyl)-1-methyl-1H-1,2,3-triazol-4-yl)pyridin-3-yl)oxy)cyclohexanecarboxylic acid]"

# Same assay, conditions: human LPA1 functional antagonist assay; read-out: hLPA1 IC50
row,Compound,IC50
1,"CC[C@H](C)OC(=O)NCc1c(-c2ccc(O[C@H]3CCC[C@H](C(=O)O)C3)c(C)n2)nnn1C [Example 175, (1S,3S)-3-((6-(5-((((S)-sec-butoxy-carbonyl)amino)methyl)-1-methyl-1H-1,2,3-triazol-4-yl)-2-methyl-pyridin-3-yl)oxy)cyclohexane-1-carboxylic acid]",95 nM
2,"Cc1nc(-c2nnn(C)c2CNC(=O)OCCC(C)(C)C)cnc1O[C@H]1CCC[C@H](C(=O)O)C1 [Example 158, (1S,3S)-3-((5-(5-((((3,3-dimethyl-butoxy)carbonyl)amino)methyl)-1-methyl-1H-1,2,3-triazol-4-yl)-3-methylpyrazin-2-yl)oxy)cyclo-hexane-1-carboxylic acid]",76 nM

# Continued, values first:
row,IC50,Compound
1,122 nM,"Cc1nc(-c2nnn(C)c2CNC(=O)OCc2cccc(F)c2)cnc1O[C@H]1CCC[C@H](C(=O)O)C1 [Example 159, (1S,3S)-3-((5-(5-(((((3-fluorobenzyl)oxy)carbonyl)amino)methyl)-1-methyl-1H-1,2,3-triazol-4-yl)-3-methylpyrazin-2-yl)oxy)cyclo-hexane-1-carboxylic acid]"
2,19 nM,"Cc1nc(-c2nnn(C)c2CNC(=O)OCCC2CC2)ccc1O[C@H]1CCC[C@H](C(=O)O)C1 [Example 157, (1S,3S)-3-((6-(5-((((2-cyclopropyl-ethoxy)carbonyl)amino)methyl)-1-methyl-1H-1,2,3-triazol-4-yl)-2-methylpyridin-3-yl)oxy)cyclo-hexane-1-carboxylic acid]"
3,72 nM,"Cc1nc(-c2nnn(C)c2CNC(=O)OCCC2(C)CC2)ccc1O[C@H]1CCC[C@H](C(=O)O)C1 [Example 195, (1S,3S)-3((2-methyl-6-(1-methyl-5-((((2-(1-methylcyclopropyl)ethoxy)carbonyl)amino)methyl)-1H-1,2,3-triazol-4-yl)pyridin-3-yl)oxy)cyclohexane-1-carboxylic acid]"
4,312 nM,"CC(=O)CCCOC(=O)NCc1c(-c2ccc(O[C@H]3CCC[C@H](C(=O)O)C3)c(C)n2)nnn1C [Example 199, (1S,3S)-3((2-methyl-6-(1-methyl-5-(((((4-oxopentyl)oxy)carbonyl)amino)methyl)-1H-1,2,3-triazol-4-yl)pyridin-3-yl)oxy)cyclohexane-1-carboxylic acid]"
